Source: PMC10353390, “Biological and Structural Analyses of New Potent Allosteric Inhibitors of HIV-1 Integrase” (Antimicrobial Agents and Chemotherapy, 2023)
Read-outs that look alike come from different tables or passages of the source.

Columns and labels:
[1] = tested on: lab-adapted and clinical HIV-1 isolates; assay: Infection assays in primary T CD4+ lymphocytes; assay type: cell-based; conditions: Human immunodeficiency virus 1, Lymphocyte
[2] = tested on: HIV-1 strains resistant to INSTIs, NRTIs, NNRTIs or PIs; assay type: cell-based
Summary of the method: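 Cell viability (CellTiter-Glo luminescence) served as read-out in MT4 cells at 10^6/mL, infected 2 h at MOI 0.001 in presence of graded compound concentrations. Viruses: resistance-mutation recombinants in NL4-3 backbone plus resistant clinical isolates.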

[3] = tested on: recombinant NL4-3 viruses with polymorphisms at IN positions 124 and 125; assay: Multiple-round infection of MT4 cells with recombinant NL4-3 viruses polymorphic at IN positions 124 and 125; assay type: cell-based, HIV-1
Description: Located on the HIV-1 IN CCD dimerization interface, the principal INLAI binding pocket overlaps with a hot spot of amino acid sequence polymorphism involving IN residues 124 and 125 ([16]). To test if the new INLAIs maintained antiviral activity against major polymorphisms, we introduced all major combinations of residues found in circulating HIV-1 strains at positions 124 and 125 into NL4-3 HIV-1 molecular clone. In total, we evaluated 15 such combinations that collectively covered 98% of all HIV-1 clade polymorphisms involving these positions ([48]). To gauge effects on the antiviral activity, we calculated the EC50 fold change (FC) relative to wild type NL4-3 HIV-1 strain that features Thr124 and Thr125 (TT; specific polymorphisms are referred to by a single letter amino acid code).
(§1) MT4 cells growing exponentially at the density of 10^6/mL were infected with HIV-1 strain NL4-3 at a multiplicity of infection (MOI) of 0.001 for 2 h in the presence of different concentrations of compounds, and the CellTiter-Glo luminescent reagent (Promega) was used to quantify cell viability as described previously ([12]).

[4] = tested on: NL4-3 HIV-1 with INLAI-selected IN single point mutations; assay type: cell-based
[5] = target: HIV-1 IN-LEDGF/p75 interaction (Human immunodeficiency virus type 1 group M subtype B, UniProt P12497); assay: biochemical
[6] = Cytotoxicity assay in MT4 cells; assay type: cell-based; conditions: human, MT4 cells (proliferating human T-cell line), CellTiter-Glo
Description: Growth inhibition was monitored in a proliferating human T-cell line (MT4) with different concentrations of compounds, using the CellTiter-Glo luminescent reagent (Promega), as previously described ([12]).

NL4-3 HIV-1 strain = assay: Multiple-round infection assay in MT4 cells, NL4-3; assay type: cell-based; conditions: MT4 cells
[7] = tested on: VSV-G-pseudotyped NL4-3Δenv-luc; assay: microbe, parasite or virus in culture; assay type: cell-based, HIV-1
[8] = tested on: primary HIV-1 isolates with polymorphisms at IN positions 124 and 125; assay: Multiple-round infection of MT4 cells with primary HIV-1 isolates polymorphic at IN positions 124 and 125; assay type: cell-based; conditions: primary isolate
Protocol: Next, we evaluated the potency of the BDM-2 series of INLAIs against several primary HIV-1 isolates with polymorphisms at IN positions 124 and 125.
as §1

[9] = target: CCD of HIV-1 IN and IBD of LEDGF/p75 (Human immunodeficiency virus type 1 group M subtype B, UniProt P12497); assay: biochemical
Protocol: The INLAIs were tested for the ability to inhibit the HIV-1 IN-LEDGF/p75 interaction in a homogeneous time-resolved fluorescence (HTRF) assay. Our assays used either full-length IN and LEDGF/p75 proteins or their respective minimally sufficient interaction domains: the CCD of HIV-1 IN and the IBD of LEDGF/p75 (Table 1).
HTRF-based CCD-IBD interaction, IN-LEDGF/p75 interaction and IN multimerization assays were performed as described previously ([12]).

HXB2 HIV-1 strain = assay: Multiple-round infection assay in MT4 cells, HXB2; assay type: cell-based; conditions: Human immunodeficiency virus 1, HXB2; multiple-round infection, MT4 cells; mean ± SD, n > 5; read-out: EC50 HXB2
Summary of the method: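 Antiviral read-out was CellTiter-Glo luminescent viability of exponentially growing MT4 cells (10^6/mL). Cells were exposed to HIV-1 for 2 h at an MOI of 0.001 while compound was present at varying concentrations.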

HIV-1 IN = target: T1, HIV-1 IN (Human immunodeficiency virus type 1 group M subtype B, UniProt P12497); assay: HTRF IN multimerization assay; assay type: biochemical; conditions: mean ± SD
T1 construct: made in house
Description: A key property of INLAIs is the ability to promote HIV-1 IN homo-multimerization ([39][–][42]). […] The maximal signal (plateau) in our IN aggregation assay corresponds to the highest HTRF signal increase under saturating INLAI concentration, relative to baseline level. Thus, MUT916, MUT884, MUT871, and MUT872 increased HIV-1 IN aggregation 3.7 to 4.4-fold, while BDM-2, BI-224436, and S-I-82 did so 5 to 6-fold (Table 1).

[10] = INSTI-resistant, NL4-3 background

Cc1ccc(C2CC2)c(-c2ccc3c(c2C)CCCO3)c1[C@H](OC(C)(C)C)C(=O)O [MUT871]
EC50 ([1]; read-out: EC50 33913N (B)): 1.5 ± 0.6 nM | EC50 ([1]; read-out: EC50 HXB2 (B)): 1.8 ± 0.3 nM | EC50 ([1]; read-out: EC50 KER2008 (A)): 6.4 ± 1.3 nM | EC50 ([1]; read-out: EC50 NL4-3 (B)): 2.8 ± 0.5 nM | EC50 ([1]; read-out: EC50 NP1525 (CRF01_AE)): 3.5 ± 0.6 nM | EC50 ([1]; read-out: EC50 NP1538 (B)): 4 ± 2.3 nM | Fold change in EC50 relative to NL4-3, E92Q [2, 10]: 1 | Fold change in EC50 relative to NL4-3, G140S [2, 10]: 1 | Fold change in EC50 relative to NL4-3, G140S/Q148H [2, 10]: 1 | Fold change in EC50 relative to NL4-3, N155H [2, 10]: 1 | Fold change in EC50 relative to NL4-3, Q148H [2, 10]: 1 | Fold change in EC50 relative to NL4-3, Y143R [2, 10]: 1 | Fold change in EC50 relative to NL4-3, NLAY351717 ([2]; NRTI-resistant clone): 1 | Fold change in EC50 relative to NL4-3, NLAY351753 ([2]; NRTI/NNRTI-resistant clone): 1 | Fold change in EC50 relative to NL4-3, K103N/Y181C ([2]; NRTI/NNRTIs group, NL4-3 background): 1 | Fold change in EC50 relative to NL4-3, ARP-4595 ([2]; PI-resistant virus): 1 | Fold change in EC50 relative to NL4-3, ARP-4596 ([2]; PI-resistant virus): 1 | Fold change in EC50 relative to NL4-3, ARP-11801 ([2]; PI-resistant virus): 1 | Fold change in EC50 relative to NL4-3, ARP-11803 ([2]; PI-resistant virus): 1 | Fold change in EC50 relative to NL4-3, ARP-11807 ([2]; PI-resistant virus): 1 | Fold change in EC50 relative to NL4-3, ARP-11808 ([2]; PI-resistant virus): 1 | Fold change in EC50 relative to parental NL4-3, AA ([3]; recombinant NL4-3, IN 124/125 AA): 1 | Fold change in EC50 relative to parental NL4-3, AM ([3]; recombinant NL4-3, IN 124/125 AM): 0.4 | Fold change in EC50 relative to parental NL4-3, AT ([3]; recombinant NL4-3, IN 124/125 AT): 1 | Fold change in EC50 relative to parental NL4-3, AV ([3]; recombinant NL4-3, IN 124/125 AV): 1 | Fold change in EC50 relative to parental NL4-3, GA ([3]; recombinant NL4-3, IN 124/125 GA): 3 | Fold change in EC50 relative to parental NL4-3, GT ([3]; recombinant NL4-3, IN 124/125 GT): 2 | Fold change in EC50 relative to parental NL4-3, NA ([3]; recombinant NL4-3, IN 124/125 NA): 2 | Fold change in EC50 relative to parental NL4-3, NT ([3]; recombinant NL4-3, IN 124/125 NT): 1 | Fold change in EC50 relative to parental NL4-3, NV ([3]; recombinant NL4-3, IN 124/125 NV): 1 | Fold change in EC50 relative to parental NL4-3, SA ([3]; recombinant NL4-3, IN 124/125 SA): 1 | Fold change in EC50 relative to parental NL4-3, ST ([3]; recombinant NL4-3, IN 124/125 ST): 1 | Fold change in EC50 relative to parental NL4-3, TA ([3]; recombinant NL4-3, IN 124/125 TA): 1 | Fold change in EC50 relative to parental NL4-3, TM ([3]; recombinant NL4-3, IN 124/125 TM): 0.3 | Fold change in EC50 relative to parental NL4-3, TV ([3]; recombinant NL4-3, IN 124/125 TV): 1 | EC50 fold change compared to wild type NL4-3, A128T [4]: 2 | EC50 fold change compared to wild type NL4-3, H171Q [4]: 6 | EC50 fold change compared to wild type NL4-3, N222K [4]: 3 | EC50 fold change compared to wild type NL4-3, T174I [4]: 323 | EC50 fold change compared to wild type NL4-3, Y99H [4]: 4 | IC50 [5]: 14 ± 5 nM | CC50 [6]: 46000 ± 11000 nM | EC90 (NL4-3 HIV-1 strain; Human immunodeficiency virus 1, NL43, multiple-round infection, from dose response curves, read-out: EC90 NL4-3): 4.6 ± 1.6 nM | EC50 (NL4-3 HIV-1 strain; Human immunodeficiency virus 1, NL43, multiple-round infection, mean ± SD, n > 5, read-out: EC50 NL4-3): 3.1 ± 1 nM | Selectivity index CC50/EC50 NL4-3 (NL4-3 HIV-1 strain): 14,838 | EC50 ratio (single/multiple-round infection) [7]: 203 | EC50 ([7]; Human immunodeficiency virus 1, NL43, MT4, read-out: EC50 in single-round infection): 630 ± 10 nM | Fold change in EC50 relative to parental NL4-3, CAM2BBY (CRF02) ([8]; IN 124/125 AA): 2 | Fold change in EC50 relative to parental NL4-3, E0836M4 (D) ([8]; IN 124/125 AA): 2 | Fold change in EC50 relative to parental NL4-3, KER2008 (A) ([8]; IN 124/125 AA): 1 | Fold change in EC50 relative to parental NL4-3, NP1525 (CRF01) ([8]; IN 124/125 AA): 1 | Fold change in EC50 relative to parental NL4-3, NP1695 (CRF02) ([8]; IN 124/125 AA): 3 | Fold change in EC50 relative to parental NL4-3, TZA125 (C) ([8]; IN 124/125 AA): 1 | Fold change in EC50 relative to parental NL4-3, KSM4030 (A) ([8]; IN 124/125 GA): 2 | Fold change in EC50 relative to parental NL4-3, vGA (C) ([8]; IN 124/125 GA): 5 | Fold change in EC50 relative to parental NL4-3, 99ET14 (C) ([8]; IN 124/125 NA): 2 | Fold change in EC50 relative to parental NL4-3, NP1538 (B) ([8]; IN 124/125 NA): 2 | Fold change in EC50 relative to parental NL4-3, vNA_1 (B) ([8]; IN 124/125 NA): 3 | Fold change in EC50 relative to parental NL4-3, vNA_2 (CRF02) ([8]; IN 124/125 NA): 3 | Fold change in EC50 relative to parental NL4-3, vNV (B) ([8]; IN 124/125 NV): 3 | Fold change in EC50 relative to parental NL4-3, vSA_1 (B) ([8]; IN 124/125 SA): 4 | Fold change in EC50 relative to parental NL4-3, vSA_2 (CRF02) ([8]; IN 124/125 SA): 3 | Fold change in EC50 relative to parental NL4-3, vTA_1 (B) ([8]; IN 124/125 TA): 2 | Fold change in EC50 relative to parental NL4-3, vTA_2 (CRF02) ([8]; IN 124/125 TA): 2 | IC50 [9]: 32 ± 14 nM | EC50 (HXB2 HIV-1 strain): 1.4 ± 0.3 nM | AC50 (HIV-1 IN; concentration for 50% maximum activation of multimerization): 31 ± 20 nM | IN multimerization Plateau (HIV-1 IN; maximum multimerization reached versus baseline): 440 ± 53%
